This note sets out measurements from US8012983B2, “Substituted triazolopyrazines useful for the treatment of degenerative and inflammatory diseases” (Galapagos NV, priority 2008, dated 2011).

In test [1] the test system is MMP1 expression by activated synovial fibroblasts (RASFs). The experiment in a line: 'MMP assay': complex trigger-induced MMP1 expression by synovial fibroblasts (MMP1 ELISA). Type of test: cell-based. To be noted: Homo sapiens, Fibroblast; complex trigger activated SFs, 48 hrs, FIG. 3; read-out: IC50 value, reduction of MMP1 expression by SFs. How it is done:
A 384-well format ELISA for measurement of MMP1 is developed. Various primary antibodies are tested, as well as various ELISA protocols. The following protocol is developed and validated to measure MMP1 levels in SF supernatant in 384 well plates: white Lumitrac 600 384 well plates (Greiner) are coated with 2 μg/mL anti-MMP1 antibody MAB1346 (Chemicon). The antibody is diluted in buffer 40 (1.21 g Tris base (Sigma), 0.58 g NaCl (Calbiochem) and 5 ml 10% NaN3 (Sigma) in 1 L milliQ water and adjusted to pH 8.5). After overnight incubation at 4° C., plates are washed with PBS (80 g NaCl, 2 g KCl (Sigma), 11.5 g Na2HPO4.7H2O and 2 g KH2PO4 in 10 L milliQ; pH 7.4) and blocked with 100 μL/well Casein buffer (2% Casein (VWR International) in PBS). Next day, casein buffer is removed from ELISA plates and replaced by 50 μL/well EC buffer (4 g casein, 2.13 g Na2HPO4 (Sigma), 2 g bovine albumin (Sigma), 0.69 g NaH2PO4.H2O (Sigma), 0.5 g CHAPS (Roche), 23.3 g NaCl, 4 ml 0,5 M EDTA pH 8 (Invitrogen), 5 ml 10% NaN3 in 1 L milliQ and adjusted to pH 7.0). 0.25 mM DTT (Sigma) is added to the thawed samples plates. After removal of the EC buffer, 20 μL of sample is transferred to the ELISA plates. After overnight incubation at 4° C. plates are washed twice with PBS and once with PBST (PBS with 0.05% Tween-20 (Sigma)) and incubated with 35 μL/well biotinylated anti-MMP1 antibody solution (R&D). This secondary antibody is diluted in buffer C (0.82 g NaH2PO4.H2O, 4.82 g Na2HPO4, 46.6 g NaCl, 20 g bovine albumin and 4 mL 0,5M EDTA pH 8 in 2 L milliQ and adjusted to pH 7.0) at a concentration of 5 μg/mL. After 2 h of incubation at RT, plates are washed as described above and incubated with 50 μL/well streptavidin-HRP conjugate (Biosource). Streptavidin-HRP conjugate is diluted in buffer C at a concentration of 0.25 μg/mL. After 45 min, plates are washed as described above and incubated for 5 min with 50 μL/well BM Chem ELISA Substrate (Roche). Readout is performed on the Luminoscan Ascent Luminometer (Labsystems) with an integration time of 200 msec or with an Envision reader (Perkin Elmer).
The increase of MMP1 expression by SFs upon treatment with cytokines relevant in the field of RA (TNF-α, IL1β and OSM) or a combination thereof is shown in FIG. 2 as white bars. For this experiment, SFs are seeded in 96 well plates, 3,000 cells/well. 24 h later, the medium is changed to M199 medium supplemented with 1% FBS. One day after the medium change, cytokines or combinations thereof are added to the cultures, each cytokine being added to a final concentration of 25 ng/mL. 72 h after cytokine addition, the supernatant is collected and processed in the MMP1 ELISA as described in the protocol given above. In parallel with this experiment, SFs are triggered, using the same protocol, with the supernatant of THP1 cells (2-fold diluted in M199+1% FBS) treated with the same cytokines or combinations of cytokines for 48 h in M199 medium+1% FBS. The induction of the MMP1 expression by SFs triggered with the supernatants of TNF-α-treated THP1 cells is stronger (>4.5 fold induction) as compared to the SFs triggered with recombinant TNF-α alone (3-fold induction) and almost equals the 5-fold induction obtained by a mixture of 3 purified cytokines (TNF-α, IL1βb, OSM). […] As the role of TNF-α in the RA pathogenesis is validated (TNF-α-blockers such as Infliximab and Etanercept show some efficacy in the treatment of RA patients) and the THP-1 cells are representative for monocytes/macrophages present in the joint of RA patients, the TNF-α-based trigger mixture prepared by contacting THP-1 cells with TNF-α will contain factors present in the joints of RA patients and subsequently is relevant to RA. This TNF-α-based complex trigger, further referred to as the ‘complex trigger’, will further be used as basis for the ‘MMP assay’. […]
In general terms: In an ELISA, binding on a coated surface is turned into a signal by an enzyme label.

In a further test the test system is TNF alpha. The experiment in a line: Septic shock model (LPS-induced TNF release). Type of test: in vivo, BALB/cJ female mice. The settings on record: after injection of LPS, benchmark, FIG. 7.

Protocol for TNF alpha: Six BALB/cJ female mice (20 g) per group are treated at the intended dosing once, po. Thirty minutes later, LPS (15 μg/kg; E. coli serotype 0111:B4) is injected ip. Ninety minutes later, mice are euthanized and blood is collected. Circulating TNF alpha levels are determined using commercially available ELISA kits. Dexamethasone (5 μg/kg) is used as a reference anti-inflammatory compound.

As to `C[C@@H]1C[C@H]2[C@@H]3CCC4=CC(=O)C=C[C@]4(C)[C@@]3(F)[C@@H](O)C[C@]2(C)[C@@]1(O)C(=O)CO` [dexamethasone, reference compound], the IC50 in test [1] was about 1 nM. Also, in the test on TNF alpha, the “percentage inhibition of TNF alpha release” value stood at 100%.

As usually defined, the IC50 is the concentration that inhibits the measured activity by half.
